From ChEMBL document CHEMBL1201862, “PubChem BioAssay data set” (2004)
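Compound exposure: 48 hours, 5 concentrations, 96-well plates. Abbreviation: GI50, concentration required for 50% inhibition of growth.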 Active and inactive are the calls of the source. No stated cut-off is given here; in the data, active = GI50 up to about 1.1 µM and inactive = higher.

Key:
Assay in all cases: NCI-60 cell line screen, 48 h
SK-MEL-28 = tested on: SK-MEL-28
OVCAR-5 = tested on: OVCAR-5
NCI/ADR-RES = tested on: NCI/ADR-RES
NCI-H226 = tested on: NCI-H226
MDA-MB-231 = tested on: MDA-MB-231
HL-60 = tested on: HL-60
HCT-15 = tested on: HCT-15
M14 = tested on: M14
SF-295 = tested on: SF-295
SF-268 = tested on: SF-268
U-251 = tested on: U-251
UACC-257 = tested on: UACC-257
PC-3 = tested on: PC-3
K562 = tested on: K562
TK-10 = tested on: TK-10
OVCAR-8 = tested on: OVCAR-8
KM12 = tested on: KM12
OVCAR-4 = tested on: OVCAR-4
HOP-62 = tested on: HOP-62
MDA-N = tested on: MDA-N

Row | SMILES | GI50 (SK-MEL-28) | GI50 (OVCAR-5) | GI50 (NCI/ADR-RES) | GI50 (NCI-H226) | GI50 (MDA-MB-231) | GI50 (HL-60) | GI50 (HCT-15) [µM] | GI50 (M14) | GI50 (SF-295) | GI50 (SF-268) | GI50 (U-251) | GI50 (UACC-257) | GI50 (PC-3) | GI50 (K562) | GI50 (TK-10) | GI50 (OVCAR-8) | GI50 (KM12) | GI50 (OVCAR-4) | GI50 (HOP-62) | GI50 (MDA-N)
1 | CCOC(=O)c1c(N)sc2c1CC(C)CC2 (configuration not stated) | 53.5 µM (inactive) | 55.3 µM (inactive) | 44.3 µM (inactive) | 23.5 µM (inactive) | 33.4 µM (inactive) | 0.292 µM (active) | 41.8 | 26.8 µM (inactive) | 45 µM (inactive) | 45.1 µM (inactive) | 42.4 µM (inactive) | 31.2 µM (inactive) | 29.4 µM (inactive) | 39.4 µM (inactive) | 45.6 µM (inactive) | 45.3 µM (inactive) | 41.5 µM (inactive) | 34.1 µM (inactive) | 52.5 µM (inactive) | 47.5 µM (inactive)
2 | COc1cc(/C=C/C(=N\NC(N)=S)c2sc(NNC(C)=O)nc2C)ccc1O | > 100 µM (inactive) | > 100 µM (inactive) | > 100 µM (inactive) | > 100 µM (inactive) | > 100 µM (inactive) | 29.6 µM (inactive) | > 100 | > 100 µM (inactive) | > 100 µM (inactive) | > 100 µM (inactive) | > 100 µM (inactive) | > 100 µM (inactive) | > 100 µM (inactive) | > 100 µM (inactive) | > 100 µM (inactive) | > 100 µM (inactive) | > 100 µM (inactive) | > 100 µM (inactive) | > 100 µM (inactive) | > 100 µM (inactive)
3 | CNC(=O)/C(=C/c1ccc(OC)cc1)c1cc(OC)c(OC)c(OC)c1 | 2.77 µM (inactive) | 20.7 µM (inactive) | 1.98 µM (inactive) | 10.3 µM (inactive) | 6.14 µM (inactive) | 0.493 µM (active) | 0.743 | 1.45 µM (inactive) | 0.552 µM (active) | 4.83 µM (inactive) | 2.81 µM (inactive) | 5.08 µM (inactive) | 1.03 µM (active) | 0.546 µM (active) | > 44.1 µM (inactive) | 4.12 µM (inactive) | 0.598 µM (active) | 21.3 µM (inactive) | 2.27 µM (inactive) | 0.206 µM (active)
4 | CN1CCC2(CC1)C(=O)N(N1CCCCCC1)C(=O)N2c1ccccc1 | > 100 µM (inactive) | > 100 µM (inactive) | > 100 µM (inactive) | > 100 µM (inactive) | > 100 µM (inactive) | > 100 µM (inactive) | > 100 | > 100 µM (inactive) | > 100 µM (inactive) | > 100 µM (inactive) | > 100 µM (inactive) | > 100 µM (inactive) | 77.8 µM (inactive) | > 100 µM (inactive) | > 100 µM (inactive) | 78 µM (inactive) | > 100 µM (inactive) | > 100 µM (inactive) | > 100 µM (inactive) | > 100 µM (inactive)
5 | CCCNC1=Nc2ccccc2N(Cc2ccccc2)CC1 | 13.3 µM (inactive) | 40.2 µM (inactive) | 16.1 µM (inactive) | 26.6 µM (inactive) | 20.3 µM (inactive) | 12.9 µM (inactive) | 20.7 | 14.3 µM (inactive) | 24.9 µM (inactive) | 15.7 µM (inactive) | 18 µM (inactive) | 14.4 µM (inactive) | 19.3 µM (inactive) | 5.57 µM (inactive) | 27.8 µM (inactive) | 14.9 µM (inactive) | 22.5 µM (inactive) | 35 µM (inactive) | 30.5 µM (inactive) | 26 µM (inactive)
6 | S=c1[nH]nc(COc2ccc3c(c2)CCCC3)n1/N=C/c1ccc(Cl)cc1 | 18.2 µM (inactive) | 17.9 µM (inactive) | 17.6 µM (inactive) | – | 24.1 µM (inactive) | 18.2 µM (inactive) | 20.4 | 18 µM (inactive) | 17.8 µM (inactive) | 17.9 µM (inactive) | 19.1 µM (inactive) | 22.6 µM (inactive) | 14.9 µM (inactive) | 17.3 µM (inactive) | 20.1 µM (inactive) | 16.6 µM (inactive) | 16.3 µM (inactive) | 18.1 µM (inactive) | 15.9 µM (inactive) | 17.7 µM (inactive)
7 | Oc1cccc2c(Cl)ccnc12 | 7.69 µM (inactive) | 5.22 µM (inactive) | 2.3 µM (inactive) | 7.45 µM (inactive) | 1.13 µM (inactive) | 0.124 µM (active) | 0.305 | 1.44 µM (inactive) | 0.889 µM (active) | 0.522 µM (active) | 1.45 µM (inactive) | 3.1 µM (inactive) | 1.67 µM (inactive) | 0.42 µM (active) | 44.3 µM (inactive) | 0.372 µM (active) | 4.93 µM (inactive) | 1.7 µM (inactive) | 1.95 µM (inactive) | 3.58 µM (inactive)
8 | O=C(/N=N/c1ccc(Br)cc1)NNc1ccc(Br)cc1 | 26.3 µM (inactive) | 23.3 µM (inactive) | 20 µM (inactive) | 20.5 µM (inactive) | 21.2 µM (inactive) | 14 µM (inactive) | 19.4 | 17.1 µM (inactive) | 28.1 µM (inactive) | – | 17.5 µM (inactive) | – | 15.5 µM (inactive) | 10.5 µM (inactive) | – | 29.7 µM (inactive) | 17.7 µM (inactive) | – | 16.4 µM (inactive) | 24.2 µM (inactive)
9 | COc1c2c(cc3c1OCO3)C13C=CC(OC)CC1N(CC3)C2.[O-][Cl+3]([O-])([O-])O (configuration not stated) | > 100 µM (inactive) | > 100 µM (inactive) | > 100 µM (inactive) | > 100 µM (inactive) | > 100 µM (inactive) | 39.4 µM (inactive) | 28.4 | > 100 µM (inactive) | > 100 µM (inactive) | > 100 µM (inactive) | > 100 µM (inactive) | > 100 µM (inactive) | > 100 µM (inactive) | – | > 100 µM (inactive) | > 100 µM (inactive) | 51.1 µM (inactive) | 49.3 µM (inactive) | > 100 µM (inactive) | 37.3 µM (inactive)
10 | COc1ccc(Oc2nc(C#CC(C)(C)O)nc(Oc3ccc(OC)cc3)n2)cc1 | 4.9 µM (inactive) | 4.72 µM (inactive) | 18.9 µM (inactive) | – | 2.88 µM (inactive) | 1.07 µM (active) | 1.34 | 2.2 µM (inactive) | 16.7 µM (inactive) | 9.08 µM (inactive) | 3.82 µM (inactive) | 17.9 µM (inactive) | 2.52 µM (inactive) | 1.67 µM (inactive) | 12.6 µM (inactive) | 3.76 µM (inactive) | 14 µM (inactive) | 1.79 µM (inactive) | 21.8 µM (inactive) | 8.55 µM (inactive)
11 | COC(=O)C1(NC(=O)C(CC(=O)OCc2ccccc2)NC(=O)OCc2ccccc2)CCCCCCC1 (configuration not stated) | 8.69 µM (inactive) | 62.7 µM (inactive) | 19.3 µM (inactive) | 40.3 µM (inactive) | 56.4 µM (inactive) | 11.3 µM (inactive) | 30.3 | 34.4 µM (inactive) | 31.6 µM (inactive) | 44.7 µM (inactive) | 47.2 µM (inactive) | – | 7.96 µM (inactive) | 10.2 µM (inactive) | 47.4 µM (inactive) | 26.4 µM (inactive) | 48.3 µM (inactive) | 29.8 µM (inactive) | > 100 µM (inactive) | 28.6 µM (inactive)
